“And” between values parts separate entries of the source, which are not always exact repeats. Equal entries are not always repeated. Where two headings read alike, the source gives them in different places.
What was measured:
in vitro [1] = type: in vitro ADME; conditions: pH 7.4, 10 µM, 16 h at 30 °C
[2] = molecular target: endogenous BCL6 in OCI-Ly1 cells (Homo sapiens, UniProt P41182); assay: cell-based
[3] = Microsomal clearance assay (RLM); type: in vitro ADME; conditions: rat liver microsomes, 1 μM compound
Description: 6. Supplementary experimental: in vitro DMPK assays
6.1 Microsomal clearance assay
Microsomal clearance was determined in female CD1 mice, female Sprague–Dawley rats, and mixed gender human liver microsomes obtained from BioIVT (Peterborough, U.K.) following incubation of 1 μM compound at 37 °C in 0.5 mg/mL microsomal protein, 3 mmol/L MgCl2, 1 mmol/L NADPH, 2.5 mmol/L and 10 mmol/L phosphate buffer (pH 7.4) (all purchased from Sigma-Aldrich, Gillingham, U.K). Reactions were started by addition of the cofactors following 10 min preincubation of microsomes with test compound and were terminated at −1, 0, 5, 10, 15, and 30 min with three volumes of ice-cold methanol containing internal standard. Samples were centrifuged at 2800g for 30 min at 4 °C and the supernatants analyzed.
Control incubations were prepared as above with omission of cofactors. Compound measurements were […]
separation with a 3 min gradient of 0.1% formic acid in methanol on a Kinetex C18, 50 × 2.1 mm 2.6 μm UPLC column (Phenomenex, Macclesfield, UK). […]

OPRK1 = OPRK1 (Homo sapiens, UniProt P41145); assay: SAFETYScan GPCR cAMP, Agonist; type: cell-based
Chain of OPRK1 (P41145 whole entry, species assumed): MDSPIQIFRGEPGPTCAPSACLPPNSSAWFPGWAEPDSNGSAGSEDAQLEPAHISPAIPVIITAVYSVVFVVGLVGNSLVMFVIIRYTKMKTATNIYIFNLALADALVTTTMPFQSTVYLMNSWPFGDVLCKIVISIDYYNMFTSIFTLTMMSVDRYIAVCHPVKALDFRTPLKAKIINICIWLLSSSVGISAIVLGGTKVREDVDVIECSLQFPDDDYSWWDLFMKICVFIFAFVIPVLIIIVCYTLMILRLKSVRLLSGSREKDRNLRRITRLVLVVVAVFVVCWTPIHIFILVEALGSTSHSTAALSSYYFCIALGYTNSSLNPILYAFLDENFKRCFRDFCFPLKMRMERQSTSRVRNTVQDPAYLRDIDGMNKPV
Description: (§1) Supplement jm1c02175_si_002.xlsx, sheet "SAFETYScan" | column: RC50 (uM); Max Response

ADRB2 = molecular target: T1, ADRB2 (Homo sapiens, UniProt P07550); assay: SAFETYScan GPCR cAMP, Agonist; type: cell-based
T1 construct: expressed in transfected cells
T1 sequence (P07550 whole entry): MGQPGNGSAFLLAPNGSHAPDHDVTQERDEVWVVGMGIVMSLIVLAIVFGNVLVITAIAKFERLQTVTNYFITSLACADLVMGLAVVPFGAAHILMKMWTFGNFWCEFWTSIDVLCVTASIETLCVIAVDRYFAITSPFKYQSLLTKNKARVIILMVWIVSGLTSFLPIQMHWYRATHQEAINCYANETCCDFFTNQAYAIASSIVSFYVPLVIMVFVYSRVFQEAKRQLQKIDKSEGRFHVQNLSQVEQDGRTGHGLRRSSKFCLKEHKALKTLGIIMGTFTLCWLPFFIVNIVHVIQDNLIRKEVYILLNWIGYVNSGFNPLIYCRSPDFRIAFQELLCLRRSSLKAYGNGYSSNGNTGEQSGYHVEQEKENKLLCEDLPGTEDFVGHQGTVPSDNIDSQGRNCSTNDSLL
Description: as §1

CNR1 = molecular target: T2, CNR1 (Homo sapiens, UniProt P21554); assay: SAFETYScan GPCR cAMP, Agonist; type: cell-based
T2 construct: expressed in transfected cells
T2 sequence (P21554 whole entry): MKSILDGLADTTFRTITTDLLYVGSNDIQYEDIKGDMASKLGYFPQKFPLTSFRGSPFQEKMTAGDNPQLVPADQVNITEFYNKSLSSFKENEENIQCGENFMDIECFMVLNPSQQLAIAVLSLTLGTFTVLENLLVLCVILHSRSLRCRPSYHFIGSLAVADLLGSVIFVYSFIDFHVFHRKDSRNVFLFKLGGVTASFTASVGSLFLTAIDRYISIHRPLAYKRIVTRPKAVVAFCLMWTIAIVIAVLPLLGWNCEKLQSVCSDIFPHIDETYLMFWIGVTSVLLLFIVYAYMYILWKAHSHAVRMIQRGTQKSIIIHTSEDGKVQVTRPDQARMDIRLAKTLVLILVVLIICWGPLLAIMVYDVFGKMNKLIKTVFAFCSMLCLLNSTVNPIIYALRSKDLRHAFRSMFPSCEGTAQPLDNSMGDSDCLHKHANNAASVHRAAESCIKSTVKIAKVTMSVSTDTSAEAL
Description: as §1

OPRD1 = OPRD1 (Homo sapiens, UniProt P41143); assay: SAFETYScan GPCR cAMP, Agonist; type: cell-based
Chain of OPRD1 (P41143 whole entry, species assumed): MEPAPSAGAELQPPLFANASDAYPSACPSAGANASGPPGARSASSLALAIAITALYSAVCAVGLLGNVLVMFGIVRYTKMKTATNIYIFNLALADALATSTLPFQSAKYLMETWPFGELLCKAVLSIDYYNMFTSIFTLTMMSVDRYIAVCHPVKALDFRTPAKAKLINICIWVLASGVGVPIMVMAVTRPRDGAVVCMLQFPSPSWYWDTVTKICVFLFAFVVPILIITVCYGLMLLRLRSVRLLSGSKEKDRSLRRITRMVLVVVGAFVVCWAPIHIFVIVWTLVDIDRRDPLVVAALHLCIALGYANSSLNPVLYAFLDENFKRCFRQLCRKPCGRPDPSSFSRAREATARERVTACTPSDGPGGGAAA
Description: as §1

CHRM2 = molecular target: T3, CHRM2 (Homo sapiens, UniProt P08172); assay: SAFETYScan GPCR cAMP, Agonist; type: cell-based
T3 construct: expressed in transfected cells
T3 sequence (P08172 1-466): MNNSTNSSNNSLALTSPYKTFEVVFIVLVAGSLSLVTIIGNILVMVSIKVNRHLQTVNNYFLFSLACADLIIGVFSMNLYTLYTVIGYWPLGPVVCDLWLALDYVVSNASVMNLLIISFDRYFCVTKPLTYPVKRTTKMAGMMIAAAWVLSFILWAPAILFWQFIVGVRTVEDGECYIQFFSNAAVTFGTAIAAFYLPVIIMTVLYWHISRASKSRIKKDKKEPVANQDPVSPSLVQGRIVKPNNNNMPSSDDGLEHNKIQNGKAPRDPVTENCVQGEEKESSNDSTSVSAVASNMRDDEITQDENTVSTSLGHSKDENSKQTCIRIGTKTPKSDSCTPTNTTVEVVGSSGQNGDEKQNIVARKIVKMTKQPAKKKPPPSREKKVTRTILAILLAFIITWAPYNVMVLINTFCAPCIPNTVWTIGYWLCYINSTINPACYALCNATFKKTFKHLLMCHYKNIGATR
Description: as §1

OPRM1 = OPRM1 (Homo sapiens, UniProt P35372); assay: SAFETYScan GPCR cAMP, Agonist; type: cell-based
Chain of OPRM1 (P35372 whole entry, species assumed): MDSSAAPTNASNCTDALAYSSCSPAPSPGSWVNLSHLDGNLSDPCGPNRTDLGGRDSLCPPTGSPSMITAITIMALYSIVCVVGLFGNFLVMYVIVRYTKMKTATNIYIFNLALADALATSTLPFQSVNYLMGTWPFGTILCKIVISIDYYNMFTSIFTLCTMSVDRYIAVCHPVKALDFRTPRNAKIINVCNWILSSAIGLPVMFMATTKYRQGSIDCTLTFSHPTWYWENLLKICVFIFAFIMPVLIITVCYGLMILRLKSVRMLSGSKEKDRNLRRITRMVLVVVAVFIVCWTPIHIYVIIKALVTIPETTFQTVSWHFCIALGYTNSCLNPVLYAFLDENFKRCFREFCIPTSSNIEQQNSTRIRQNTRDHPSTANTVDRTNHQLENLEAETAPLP
Description: as §1

ADRB1 = molecular target: T4, ADRB1 (Homo sapiens, UniProt P08588); assay: SAFETYScan GPCR cAMP, Agonist; type: cell-based
T4 construct: expressed in transfected cells
T4 sequence (P08588 whole entry): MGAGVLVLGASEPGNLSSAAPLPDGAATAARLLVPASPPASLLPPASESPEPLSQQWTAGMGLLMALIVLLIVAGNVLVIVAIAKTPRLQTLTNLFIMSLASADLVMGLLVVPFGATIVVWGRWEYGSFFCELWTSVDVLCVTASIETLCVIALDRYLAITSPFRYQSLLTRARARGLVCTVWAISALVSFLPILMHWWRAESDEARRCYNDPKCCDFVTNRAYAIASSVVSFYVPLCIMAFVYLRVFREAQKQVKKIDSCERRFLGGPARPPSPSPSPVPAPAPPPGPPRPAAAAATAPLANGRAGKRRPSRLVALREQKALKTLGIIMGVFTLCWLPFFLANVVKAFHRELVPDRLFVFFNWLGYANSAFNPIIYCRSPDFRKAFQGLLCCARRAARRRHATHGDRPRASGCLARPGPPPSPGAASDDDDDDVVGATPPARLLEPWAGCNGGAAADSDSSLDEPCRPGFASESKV
Description: as §1

DRD2S = molecular target: T5, DRD2S (Homo sapiens, UniProt P14416); assay: SAFETYScan GPCR cAMP, Agonist; type: cell-based
T5 construct: expressed in transfected cells
T5 sequence (P14416 1-414 isoform P14416-2): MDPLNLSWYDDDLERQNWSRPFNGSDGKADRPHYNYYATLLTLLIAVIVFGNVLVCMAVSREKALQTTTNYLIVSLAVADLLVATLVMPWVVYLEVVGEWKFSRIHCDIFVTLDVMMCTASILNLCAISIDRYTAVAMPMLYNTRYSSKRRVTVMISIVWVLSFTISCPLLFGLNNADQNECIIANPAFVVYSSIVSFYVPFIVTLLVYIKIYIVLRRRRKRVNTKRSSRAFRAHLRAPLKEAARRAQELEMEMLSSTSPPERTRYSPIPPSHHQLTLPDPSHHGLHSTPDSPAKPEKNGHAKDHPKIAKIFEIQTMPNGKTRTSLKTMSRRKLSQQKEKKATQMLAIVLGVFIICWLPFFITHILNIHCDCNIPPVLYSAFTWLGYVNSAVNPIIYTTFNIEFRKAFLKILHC
Description: as §1

HTR1A = molecular target: T6, HTR1A (Homo sapiens, UniProt P08908); assay: SAFETYScan GPCR cAMP, Agonist; type: cell-based
T6 construct: expressed in transfected cells
T6 sequence (P08908 1-422): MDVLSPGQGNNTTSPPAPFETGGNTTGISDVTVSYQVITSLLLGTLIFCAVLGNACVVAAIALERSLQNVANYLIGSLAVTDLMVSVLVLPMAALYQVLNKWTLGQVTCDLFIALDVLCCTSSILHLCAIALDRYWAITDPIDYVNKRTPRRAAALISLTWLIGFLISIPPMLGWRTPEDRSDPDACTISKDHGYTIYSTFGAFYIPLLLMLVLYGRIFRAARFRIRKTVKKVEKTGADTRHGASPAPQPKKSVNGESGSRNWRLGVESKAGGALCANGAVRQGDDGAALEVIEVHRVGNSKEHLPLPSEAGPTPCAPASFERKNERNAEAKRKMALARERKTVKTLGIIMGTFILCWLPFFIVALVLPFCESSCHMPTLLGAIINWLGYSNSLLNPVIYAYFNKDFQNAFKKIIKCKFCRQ
Description: as §1

HTR1B = molecular target: T7, HTR1B (Homo sapiens, UniProt P28222); assay: SAFETYScan GPCR cAMP, Agonist; type: cell-based
T7 construct: expressed in transfected cells
T7 sequence (P28222 whole entry): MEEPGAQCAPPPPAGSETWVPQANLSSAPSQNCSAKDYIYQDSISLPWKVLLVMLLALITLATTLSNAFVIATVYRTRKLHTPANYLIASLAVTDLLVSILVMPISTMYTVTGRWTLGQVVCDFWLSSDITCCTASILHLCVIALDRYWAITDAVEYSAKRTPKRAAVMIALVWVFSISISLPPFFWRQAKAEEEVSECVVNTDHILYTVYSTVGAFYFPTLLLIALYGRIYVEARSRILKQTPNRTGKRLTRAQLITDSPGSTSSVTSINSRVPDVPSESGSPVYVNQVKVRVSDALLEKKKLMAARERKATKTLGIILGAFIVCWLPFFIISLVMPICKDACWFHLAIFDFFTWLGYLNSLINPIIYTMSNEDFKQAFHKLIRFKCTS
Description: as §1

HRH2 = molecular target: T8, HRH2 (Homo sapiens, UniProt P25021); assay: SAFETYScan GPCR cAMP, Agonist; type: cell-based
T8 construct: expressed in transfected cells
T8 sequence (P25021 whole entry): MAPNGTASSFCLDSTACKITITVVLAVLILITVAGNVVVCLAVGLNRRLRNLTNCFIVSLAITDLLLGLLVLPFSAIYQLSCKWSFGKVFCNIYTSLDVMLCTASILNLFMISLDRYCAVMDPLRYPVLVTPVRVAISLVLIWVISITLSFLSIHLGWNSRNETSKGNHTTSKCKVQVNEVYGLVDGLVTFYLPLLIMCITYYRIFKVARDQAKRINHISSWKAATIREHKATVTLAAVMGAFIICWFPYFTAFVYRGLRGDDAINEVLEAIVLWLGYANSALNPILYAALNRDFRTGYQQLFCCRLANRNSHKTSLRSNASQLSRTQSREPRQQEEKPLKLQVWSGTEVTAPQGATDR
Description: as §1

CNR2 = molecular target: T9, CNR2 (Homo sapiens, UniProt P34972); assay: SAFETYScan GPCR cAMP, Agonist; type: cell-based
T9 construct: expressed in transfected cells
T9 sequence (P34972 whole entry): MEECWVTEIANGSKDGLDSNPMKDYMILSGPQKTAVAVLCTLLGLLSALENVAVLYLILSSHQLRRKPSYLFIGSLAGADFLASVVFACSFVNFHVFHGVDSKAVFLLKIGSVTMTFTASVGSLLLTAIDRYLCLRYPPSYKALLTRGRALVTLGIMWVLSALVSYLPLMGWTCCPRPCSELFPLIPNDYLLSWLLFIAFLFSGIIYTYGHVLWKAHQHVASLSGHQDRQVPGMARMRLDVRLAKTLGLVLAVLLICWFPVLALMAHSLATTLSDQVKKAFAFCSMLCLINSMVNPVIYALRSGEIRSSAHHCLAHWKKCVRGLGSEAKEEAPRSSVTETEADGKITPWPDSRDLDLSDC
Description: as §1

in vitro [4] = type: in vitro ADME; conditions: BALB/c; mouse plasma, rapid equilibrium dialysis; read-out: mouse (BALB\c) PPB (converted)
Karpas 422 = assay: Cell proliferation assay (14 days), Karpas 422
Description: Cells were seeded in 96-well culture plates at a density of 2500 cells/well in RPMI-1640 medium (Sigma-
Aldrich) supplemented with 10% FBS (Gibco). Compounds were initially dispensed into 96-well U-bottom
plates using an Echo 550 acoustic dispenser (Labcyte Inc.), then diluted in RPMI-1640 medium and
transferred onto the cells. Cells were treated with 8 compound concentrations in duplicate, ranging from
with compound for 14 days, with medium changes at days 3, 7 and 10 carried out as follows: fresh 96-well
cell culture plates were prepared containing 100 µl medium plus compound at the assay concentrations
(white plates were used on day 10 to optimise luminescence measurement). Assay plates containing cells
were vortexed to mix and cell density in one control well was counted using a Coulter Z2 cell counter
(Beckman Coulter). The volume of medium containing 2500 cells in the control well was calculated and this volume of cells was transferred from every well of the assay plates to the corresponding well of the fresh plates containing compound. After 14 days, CellTiter Glo reagent (Promega) was added to the medium in each well of the assay plate at a ratio of 1:2, mixed on a plate shaker, then incubated at room temperature for 10 minutes. Luminescence was measured using an Envision plate reader (Perkin Elmer) and the relative luminescence at each compound concentration, compared to DMSO alone, was calculated. GI50 were determined using a 4-parameter curve fit in Dotmatics (Bishops Stortford, UK).

human BCL6 BTB domain = human BCL6 BTB domain (Homo sapiens, UniProt P41182)

With `C[C@H]1C[C@@H](O)CN(c2ncc(Cl)c(Nc3ccc4c(c3)c3c(c(=O)n4C)OCC(F)(F)[C@H](C4CC4)N3)n2)C1` [12a CCT373566, (S)-10-((5-Chloro-2-((3R,5S)-3-hydroxy-5-methylpiperidin-1-yl)pyrimidin-4-yl)amino)-2-cyclopropyl-3,3-difluoro-7-methyl-1,2,3,4-tetrahydro-[1,4]oxazepino[2,3-c]quinolin-6(7H)-one] the “PAMPA (pH 7.4)” value (in vitro [1]) was 24 ×10–6 cm s–1, the Dmax ([2]; OCI-Ly1, read-out: MSD degrader assay [OCI-LY1] Dmax individual replicates, single replicate values) was 89.8% and the Dmax ([2]; OCI-Ly1, read-out: MSD degrader assay [OCI-Ly1] Dmax, mean maximal degradation of BCL6, OCI-Ly1 cells, 2 h) was 91.5%. The “degradation of BCL6 (in words)” value ([2]; OCI-Ly1 MSD assay) was “potently degrading isomer”, the “MSD degrader assay [OCI-Ly1] DC50” value ([2]; geometric mean, OCI-Ly1 cells, 2 h incubation) was “sub-nanomolar” and the “MSD degrader assay [OCI-Ly1] Dmax” value ([2]; mean maximal degradation of BCL6, OCI-Ly1 cells, 2 h) was over 90%. The “MSD degrader assay [OCI-LY1] pDC50 mean” value ([2]; mean of replicates) was 9.1465, the DC50 ([2]; read-out: Calculated free DC50 [OCI-Ly1], DC50 corrected with fu,media) was 0.088 nM and the DC50 ([2]; read-out: MSD degrader assay [OCI-LY1] DC50 individual replicates, single replicate values) was 1 nM and 0.9 nM (4×) and 1.5 nM and 0.5 nM (2×) and 0.8 nM and 1.2 nM and 0.3 nM and 0.6 nM (3×) and 0.4 nM (2×) and 1.3 nM. For the same compound, the DC50 ([2]; read-out: MSD degrader assay [OCI-Ly1] DC50, geometric mean, OCI-Ly1 cells, 2 h incubation) was 0.7 nM, the “MSD degrader assay [OCI-LY1] Dmax individual replicates” value ([2]; single replicate values) was 90.3% and 91.7% and 95.3% (2×) and 94.5% and 93.1% and 94.4% and 94.1% and 92.7% and 96.2% and 84.1% and 84.0% and 89.6% and 88.7% and 89.5% and 92.4% and the microsomal CLint at 0.5 h, 1 µM ([3]; female, Sprague-Dawley, pH 7.4) was 3 µL/min/mg. The “CLint (RLM)” value [3] was “low clearance”, the Emax (OPRK1; read-out: Max Response) was 37.1% and the EC50 (OPRK1; read-out: RC50 (EC50)) was over 10 µM. It also gave an Emax (ADRB2; read-out: Max Response) of 0%, an EC50 (ADRB2; read-out: RC50 (EC50)) of over 10 µM and an Emax (CNR1; read-out: Max Response) of 18.9%. It also gave an EC50 (CNR1; read-out: RC50 (EC50)) of over 10 µM, an Emax (OPRD1; read-out: Max Response) of 60.3% and an EC50 (OPRD1; read-out: RC50 (EC50)) of 4.95 µM. The Emax (CHRM2; read-out: Max Response) was 15%, the EC50 (CHRM2; read-out: RC50 (EC50)) was over 10 µM and the Emax (OPRM1; read-out: Max Response) was 28.9%. The EC50 (OPRM1; read-out: RC50 (EC50)) was over 10 µM, the Emax (ADRB1; read-out: Max Response) was 0% and the EC50 (ADRB1; read-out: RC50 (EC50)) was over 10 µM. It also gave an Emax (DRD2S; read-out: Max Response) of 1.64%, an EC50 (DRD2S; read-out: RC50 (EC50)) of over 10 µM and an Emax (HTR1A; read-out: Max Response) of 12.5%. The EC50 (HTR1A; read-out: RC50 (EC50)) was over 10 µM, the Emax (HTR1B; read-out: Max Response) was 21.5% and the EC50 (HTR1B; read-out: RC50 (EC50)) was over 10 µM. It also gave an Emax (HRH2; read-out: Max Response) of 0%, an EC50 (HRH2; read-out: RC50 (EC50)) of over 10 µM and an Emax (CNR2; read-out: Max Response) of 0%. The EC50 (CNR2; read-out: RC50 (EC50)) was over 10 µM, the fraction unbound (in vitro [4]) was 0.0012 and the “Karpas 422 GI50” value (Karpas 422; 14-day proliferation assay) was “Very potent growth inhibition”. The GI50 (Karpas 422; Homo sapiens, KARPAS-422, 336 h, read-out: Karpas 422 GI50) was 0.0014 µM, the “BCL6 TR-FRET pIC50 mean” value (human BCL6 BTB domain; mean of replicates) was 8.6638 and the IC50 (human BCL6 BTB domain; read-out: BCL6 TR-FRET IC50 individual replicates, single replicate values) was 2.3 nM (3×) and 2.1 nM (3×).
